PMC11727260, “Free Cholesterol‐Induced Liver Injury in Non‐Alcoholic Fatty Liver Disease: Mechanisms and a Therapeutic Intervention Using Dihydrotanshinone I” (Advanced Science, 2024)
Residue numbers refer to the chain shown, from its start.

Key:
[1] = molecular target: T1, peroxisome proliferator-activated receptor α (PPARα) (Homo sapiens, UniProt Q07869); experiment: microscale thermophoresis with purified recombinant EGFP-PPARα LBD; assay type: binding
T1 construct: gene PPARA
T1 sequence (Q07869 200-468): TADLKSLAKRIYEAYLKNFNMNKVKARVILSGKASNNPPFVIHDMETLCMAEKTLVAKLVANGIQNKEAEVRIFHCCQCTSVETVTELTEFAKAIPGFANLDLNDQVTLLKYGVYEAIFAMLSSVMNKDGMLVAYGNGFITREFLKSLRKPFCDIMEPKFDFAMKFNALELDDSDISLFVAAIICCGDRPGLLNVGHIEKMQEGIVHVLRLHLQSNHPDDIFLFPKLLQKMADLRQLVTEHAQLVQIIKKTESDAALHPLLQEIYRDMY

[2] = molecular target: T2, peroxisome proliferator-activated receptor α (PPARα) (Homo sapiens, UniProt Q07869, T283A); experiment: microscale thermophoresis with purified recombinant EGFP-PPARα LBD T283A; assay type: binding
T2 construct: gene PPARA
T2 sequence (Q07869 200-468 T283A): T1 sequence (Q07869 200-468) with T84A

SMILES: Cc1cccc2c3c(ccc12)C1=C(C(=O)C3=O)[C@@H](C)CO1 [DhT, dihydrotanshinone I]
- Kd [1]: 1.66 ± 0.5 µM
- Kd [2]: 32.9 ± 6.1 µM
